According to patent US7452523B2 (priority 2004, dated 2008):
Read-outs that look alike come from different tables or passages of the source.

How the values were obtained:
[1] = tested on: cough; conditions: cited from earlier work
[2] = tested on: patients suffering from cough
[3] = tested on: patient with persistent refractory tussive syncope; conditions: 1 ml of 1% nebulized every 4 hours for 10 days, with other anti-tussive drugs; cited from earlier work
[4] = tested on: persistent cough after stellate ganglion block; conditions: 1 ml of 2% in 2 ml normal saline, nebulized; cited from earlier work
[5] = tested on: mild to moderate asthma patients; conditions: for incidence of oropharyngeal numbing, noted at least once: 12 week study
[6] = tested on: chronic refractory cough; conditions: 3 ml of 1% nebulized twice a day 6-10 weeks, with other drugs; cited from earlier work
[7] = tested on: cough; conditions: nebulized before fibreoptic bronchoscopy; cited from earlier work
[8] = tested on: capsaicin-induced cough; conditions: lignocaine 20 mg, alone or with adrenaline; cited from earlier work
[9] = tested on: cough responses in guinea pigs; conditions: cited from earlier work
[10] = tested on: cough; conditions: cited from earlier work; remark: listed apart in the source

Structure (SMILES): CCN(CC)CC(=O)Nc1c(C)cccc1C [lidocaine, acetamide 2-(diethylamino)-N-(2,6-dimethylphenyl)]
- cough ([1]; 10 to 20 mg every 4-6 hours, albuterol pretreatment): abolished cough
- bronchoconstriction ([1]; 10 to 20 mg every 4-6 hours): not bronchoconstriction
- bronchospasm on administration ([1]; in vivo): triggers bronchospasm
- symptoms of cough patients sensitive to smoke, dust, airway pollution ([2]; 10 mg or 40 mg inhaled twice daily): substantial improvement of their symptoms
- suppression of severe chronic cough ([2]; 16 mg lung dose delivered as 40 mg/1 ml saline, less than 2 minutes): very efficacious
- cough in cystic fibrosis, bronchiectasis or other suppurative pulmonary disease ([2]; aerosolized): successful in suppressing the cough
- tolerability and safety of aerosol ([2]; formulation pH between 5.5 and 7.0): well tolerated and safe
- efficacy in seasonal non-severe cough ([2]; three mg delivered to the lung): efficacious
- syncopal episodes [3]: able to resolve syncopal episodes
- treatment of persistent cough [4]: Treatment was achieved
- patients with one or more respiratory AEs ([5]; 10 mg (16/55)): 29%
- incidence of oropharyngeal numbing, noted at least once ([5]; 10 mg (22/55)): 40%
- patients with at least one adverse event ([5]; 10 mg twice daily, 12 weeks (39/55)): 71%
- incidence of oropharyngeal numbing, noted at least once ([5]; 40 mg (16/51)): 31.45%
- patients with one or more respiratory AEs ([5]; 40 mg (18/51)): 35%
- patients with at least one adverse event ([5]; 40 mg twice daily, 12 weeks (33/51)): 65%
- lung deposition of lidocaine ([5]; compared with previous delivery): increased two- to three-fold
- loss of gag reflex ([5]; human, in vivo): No loss of gag reflex
- reports of bronchospasm upon lidocaine delivery ([5]; human, in vivo): no reports of bronchospasm
- tracheal aspiration of food or liquid ([5]; human, in vivo): No case
- treatment of refractory cough [6]: effective
- time to cough suppression [7]: 10 to 15 min
- coughing [8]: significantly reduced coughing
- total number of coughs induced by capsaicin ([9]; 10 to 30 mg/ml): reduced the total number of coughs
- onset of the first cough ([9]; aerosol 0.1 to 10 mg/ml): delay onset of the first cough
- time course of cough responses ([9]; aerosol 0.1 to 10 mg/ml): no significant effect
- total number of coughs ([9]; aerosol 0.1 to 10 mg/ml): reduce the total number of coughs
- anesthesia of oropharynx ([10]; 10 ml of 4%, about 30 minutes): substantial anesthesia of oropharynx
- duration of cough suppression ([10]; after the first treatment, 10 ml of 4%): about 9 weeks
- duration of cough suppression ([10]; after the second administration): 7.5 weeks
